≈ marks a conversion by molar mass, not a printed value. Where “and” joins values, the source holds several entries; their conditions need not be identical. Identical values can stand only once. Like-named read-outs stand apart in the source and are kept apart here.

The results in this text go back to PMC8667045, “Into Deep Water: Optimizing BCL6 Inhibitors by Growing into a Solvated Pocket” (Journal of Medicinal Chemistry, 2021).

Data set [1] has as its target T1, BCL6 BTB domain (Homo sapiens, UniProt P41182). Description: biochemical. Particulars: for BCL6 TR-FRET pIC50 mean: mean of n replicates. As to the method: Supplementary experimental: protein production, purification and crystallography
3C protease cleavage site.
used without cleaving the tag, as a 6His was needed to bind to the anti-6His-Terbium antibody. For
For both plasmid constructs described above, transformed BL21-AI E. coli cells were grown in LB
carried out at 18 °C for 18 hours. Cells were harvested by centrifugation (5500 g for 30 minutes at 4
oC) and stored at -80 °C.
Cells were re-suspended in a buffer composed of 20 mM Tris pH 8, 250 mM NaCl, 1 mM MgCl2, 0.5
Cells were lysed by sonication followed by centrifugation at 21,000 g for 45 minutes at 4 °C. […]
The final protein was assessed for purity
and molar mass by SDS-PAGE and high-resolution mass spectrometry, respectively.
(§1) directly eluted from the HisTrap FF column without HRV-3C treatment, and submitted to Superdex75
gel filtration as described above. […]
2. Supplementary experimental: biological assay conditions
IC50 values were determined using
a sigmoidal four-parameter logistic fit equation.

In data set [2] the target is T1, BCL6 BTB domain. Description: Rapid X-ray screen: ligand density in extended pocket of BCL6 BTB domain. Set-up: made in house; host or cells: E. coli BL21-AI. The following applies: crystals soaked with compound.
Description: Furthermore, we speculated that these represent better starting points since the substituent can be modified further to derive additional interactions and more completely fill the extended pocket. […] Instead, we just checked for the presence of ligand density and, in particular, for electron density in the extended pocket.
as §1
gel filtration as described above.
NH2. A stock solution of WVIP peptide at 100 mM in 100 % DMSO was added to a 2 mg/mL solution
This mixture was then concentrated to a final
protein concentration of 4 mg/mL using a centrifugal concentrator with a 3 kDa molecular weight
complex plus 1 μL of a crystallisation solution consisting of 1 M K 2HPO4, 0.7 M NaH2PO4, 75 mM
drops, followed by 10-120 minutes incubation. Crystals were then cryo-protected in a solution
composed of the crystallisation reagent supplemented with 30 % ethylene glycol and cryo-cooled in
concentrated to a final protein concentration of 10 mg/mL using a centrifugal concentrator with a 3
kDa molecular weight cut-off. Crystals were grown at 18 °C in hanging drops composed of 1.5 μL of
and 0.80 M Na/K Tartrate, against 300 μL of crystallisation solution.
and compounds were soaked as described above for the other construct. Crystals were then cryo-
protected in a solution composed of the crystallisation reagent supplemented with 30 % ethylene
glycol and cryo-cooled in liquid nitrogen.
1.5 Crystallographic data collection, processing and refinement
X-ray data were collected at Diamond Light Source, Harwell campus, Oxfordshire, UK, on beamlines
Research, London, UK, on a Rigaku FRX-AFC11-VariMax Cu-VHF-Pilatus300K. Crystals obtained with […]

The nature of data set [3]: HPLC solubility assay. Format: physicochemical. The following applies: PBS buffer, PBS pH 7.4, 1% DMSO, room temperature. On the procedure: 3. Supplementary experimental: physicochemical assays […]
3.2 HPLC solubility assay
DMSO. Following shaking of the suspension on a Bohdan Shaker at 500 rpm for 2 hours at room […]
200 µL of the supernatant was transferred to a 2 mL Agilent vial containing 50 µL of DMSO (Sigma […]
detection using an external standard which was prepared by pipetting 10 µL of the same batch of […]
The detail of the HPLC method is as following: chromatographic separation at 30°C is carried out over a 5 minute gradient elution method from 90:10 to 10:90 water:methanol (both modified with 0.1% formic acid) at a flow rate of 1.5 mL/min. Calibration curve is prepared by injecting 0.5, 2.5, and 5 µL of compound external standard.
62.5 µL of compound solubility sample.

Data set [4] is described as follows: PAMPA passive permeability pH 7.4. The following applies: for PAMPA7.4: pH 7.4, passive permeability Pe. (In general: The PAMPA barrier holds no transporters, so it reflects passive diffusion.)
Data set [5] is described as follows: NMR solubility assay. Format: physicochemical. The following applies: HEPES buffer, 5% DMSO, room temperature. As to the method: 3. Supplementary experimental: physicochemical assays
The plate was then sealed and incubated at room temperature for 20 hours, without shaking. The plate was centrifuged again for 1 minute at […]
spectrometer equipped with a 5 mm TCI-CryoProbe. […]
deuterated solvent. […] All NMR data were acquired at the […]
contained 16k time-domain data points. Relaxation delay was set to 20 sec. […]

Data set [6] can be described thus: Measured logD7.4. Type of data set: physicochemical. Particulars: pH 7.4.
Setting [7] is: TR-FRET IC50 individual replicates, single replicates, italic values used 10nM BCL6, otherwise 1nM BCL6.
[8] abbreviates: read-out: BCL6 TR-FRET Geo Mean IC50, geometric mean of n replicates, supplement.
Setting [9] is: read-out: TR-FRET IC50, tables and figures.
[10] abbreviates: read-out: TR-FRET IC50 individual replicates, single replicates, italic values used 10nM BCL6, otherwise 1nM BCL6.

Turning to `N#Cc1c(Nc2ccc3[nH]c(=O)cc(N4CCOCC4)c3c2)ccnc1Cl` [Compound 8d, 2-Chloro-4-((4-morpholino-2-oxo-1,2-dihydroquinolin-6-yl)amino)nicotinonitrile], the IC50 (in general, the concentration that gives 50% inhibition) was 2660 nM and 2560 nM and 1470 nM in data set [1] (setting [7]); 2130 nM in data set [1] (setting [8]); 2130 nM in data set [1] (setting [9]); 2100 nM and 2080 nM in data set [1] (setting [10]). The “BCL6 TR-FRET pIC50 mean” value in data set [1] is 5.67 and 5.672. Further, the “Ligand density in extended pocket” value in data set [2] is “No”.

Consider `CC(Nc1cc(=O)n(C)c2ccc(Nc3ccnc(Cl)c3C#N)cc12)c1ncco1` (centres unmarked) [Compound 13b, 2-Chloro-4-((1-methyl-4-((1-(oxazol-2-yl)ethyl)amino)-2-oxo-1,2-dihydroquinolin-6-yl)amino)nicotinonitrile], for which the concentration in solution in data set [3] (solubility at 2 h) came to 2.8 µM (≈ 1.18 µg/mL). Moreover, the PAMPA7.4 in data set [4] is recorded as 1.0 x10^-6 cms^-1.

For the compound `Cn1c(=O)n(C)c2cc(Nc3ccnc(Cl)c3C#N)ccc21` [Compound 1], the concentration in solution in data set [3] (solubility at 2 h) came to 16 µM (≈ 5.02 µg/mL).

`Cn1c(=O)cc(NC(C)(C)c2ncccn2)c2cc(Nc3ccnc(Cl)c3C#N)ccc21` [Compound 13g, 2-Chloro-4-((1-methyl-2-oxo-4-((2-(pyrimidin-2-yl)propan-2-yl)amino)-1,2-dihydroquinolin-6-yl)amino)nicotinonitrile]: in data set [5], the concentration in solution (solubility at 20 h) came to 15 µM (≈ 6.69 µg/mL). In data set [6], the logD – broadly, the decadic logarithm of the distribution of all forms, ionised or not, between an organic phase and buffer at a given pH – stood at 1.9. The PAMPA7.4 in data set [4] is reported as 1.8 x10^-6 cms^-1.

On to `CC(Nc1cc(=O)n(C)c2ccc(Nc3ccnc(Cl)c3C#N)cc12)c1ncccn1` (centres unmarked) [Compound 13e, 2-Chloro-4-((1-methyl-2-oxo-4-((1-(pyrimidin-2-yl)ethyl)amino)-1,2-dihydroquinolin-6-yl)amino)nicotinonitrile], for which the concentration in solution in data set [5] (solubility at 20 h) was 249 µM (≈ 108 µg/mL). In data set [6], the logD amounted to 1.4. The PAMPA7.4 in data set [4] is recorded as 1.4 x10^-6 cms^-1.

Turning to `CNC(=O)C(C)Nc1cc(=O)[nH]c2ccc(Nc3ccnc(Cl)c3C#N)cc12` (centres unmarked) [Compound 12a, 2-((6-((2-Chloro-3-cyanopyridin-4-yl)amino)-2-oxo-1,2-dihydroquinolin-4-yl)amino)-N-methylpropanamide], the concentration for half-maximal inhibition (IC50) in data set [1] (setting [7]) was 620 nM and 490 nM and 580 nM and 510 nM and 660 nM and 470 nM and 460 nM and 500 nM and 740 nM and 480 nM and 650 nM; in data set [1] (setting [8]) it was 552 nM; in data set [1] (setting [9]) it was 550 nM. The “BCL6 TR-FRET pIC50 mean” value in data set [1] was 6.26 and 6.258. Also, the solubility (commonly the dissolved amount per volume that the medium holds) at 2 h in data set [3] came out at 37 µM (≈ 14.7 µg/mL). Also, the Papp (in general, a coefficient for how fast a substance crosses the barrier) in data set [4] (PAMPA, pH 7.4) was < 0.2 ×10⁻⁶ cm/s.

In the case of `CCNc1cc(=O)[nH]c2ccc(Nc3ccnc(Cl)c3C#N)cc12` [Compound 8f, 2-Chloro-4-((4-(ethylamino)-2-oxo-1,2-dihydroquinolin-6-yl)amino)nicotinonitrile], the IC50 was 1660 nM and 680 nM and 1950 nM and 1130 nM and 1050 nM and 1910 nM in data set [1] (setting [7]); 1310 nM in data set [1] (setting [8]); 1310 nM in data set [1] (setting [9]). Moreover, in data set [1], the “BCL6 TR-FRET pIC50 mean” value is 5.883. Further, the “Ligand density in extended pocket” value in data set [2] is listed as “Yes”.

Turning to `CN(C)c1cc(=O)[nH]c2ccc(Nc3ccnc(Cl)c3C#N)cc12` [Compound 8a, 2-Chloro-4-((4-(dimethylamino)-2-oxo-1,2-dihydroquinolin-6-yl)amino)nicotinonitrile], the IC50 in data set [1] (setting [7]) was 7010 nM and 4460 nM; in data set [1] (setting [8]) it was 5570 nM; in data set [1] (setting [9]) it was 5570 nM; in data set [1] (setting [10]), 5520 nM. Further, the “BCL6 TR-FRET pIC50 mean” value in data set [1] was 5.25 and 5.254. Besides, the “Ligand density in extended pocket” value in data set [2] is listed as “No”.

With `CNC(=O)CNc1cc(=O)[nH]c2ccc(Nc3ccnc(Cl)c3C#N)cc12` [Compound 12e, 2-((6-((2-Chloro-3-cyanopyridin-4-yl)amino)-2-oxo-1,2-dihydroquinolin-4-yl)amino)-N-methylacetamide], the IC50 in data set [1] (setting [7]) is 19900 nM and 74100 nM and 10200 nM and 22400 nM; in data set [1] (setting [8]), 23800 nM; in data set [1] (setting [9]), 23800 nM; in data set [1] (setting [10]), 22800 nM. Moreover, in data set [1], the “BCL6 TR-FRET pIC50 mean” value was 4.62 and 4.623. The amount in solution in data set [3] (solubility at 2 h) came to 35 µM (≈ 13.4 µg/mL).

Turning to `CN1CCN(c2cc(=O)[nH]c3ccc(Nc4ccnc(Cl)c4C#N)cc23)CC1` [Compound 8c, 2-Chloro-4-((4-(4-methylpiperazin-1-yl)-2-oxo-1,2-dihydroquinolin-6-yl)amino)nicotinonitrile], the IC50 was 5770 nM and 1240 nM and 2440 nM and 2900 nM in data set [1] (setting [7]); 2640 nM in data set [1] (setting [8]); 2640 nM in data set [1] (setting [9]); 2550 nM in data set [1] (setting [10]). For the same compound, the “BCL6 TR-FRET pIC50 mean” value in data set [1] was 5.58 and 5.578. The “Ligand density in extended pocket” value in data set [2] is “No”.

For `Cn1cc(-c2cc(=O)[nH]c3ccc(Nc4ccnc(Cl)c4C#N)cc23)cn1` [Compound 8e, 2-Chloro-4-((4-(1-methyl-1H-pyrazol-4-yl)-2-oxo-1,2-dihydroquinolin-6-yl)amino)nicotinonitrile], the IC50 in data set [1] (setting [7]) is 1520 nM and 2190 nM; in data set [1] (setting [8]), 1820 nM; in data set [1] (setting [9]) it was 1820 nM. For the same compound, the “BCL6 TR-FRET pIC50 mean” value in data set [1] was 5.74 and 5.739. The “Ligand density in extended pocket” value in data set [2] was “Yes”.

With `Cn1c(=O)ccc2cc(Nc3ccnc(Cl)c3C#N)ccc21` [Compound 2, 2-Chloro-4-((1-methyl-2-oxo-1,2-dihydroquinolin-6-yl)amino)nicotinonitrile], the IC50 is 2280 nM and 4290 nM and 4070 nM and 1380 nM in data set [1] (setting [7]); 2720 nM in data set [1] (setting [8]); 2700 nM and 2720 nM in data set [1] (setting [9]). In data set [1], the “BCL6 TR-FRET pIC50 mean” value is 5.57 and 5.565. In addition, the concentration in solution in data set [3] (solubility at 2 h) was 12 µM (≈ 3.73 µg/mL).

With `N#Cc1c(Nc2ccc3[nH]c(=O)cc(N4CCCCC4)c3c2)ccnc1Cl` [Compound 8b, 2-Chloro-4-((2-oxo-4-(piperidin-1-yl)-1,2-dihydroquinolin-6-yl)amino)nicotinonitrile], the IC50 in data set [1] (setting [7]) was 1570 nM and 1240 nM and 920 nM and 540 nM and 2320 nM; in data set [1] (setting [8]), 1180 nM; in data set [1] (setting [9]), 1180 nM. For the same compound, the “BCL6 TR-FRET pIC50 mean” value in data set [1] was 5.93 and 5.929. The “Ligand density in extended pocket” value in data set [2] is recorded as “No”.
